Converted amounts (≈) assume the structure as drawn.
settings: buffer; pH 7.4; 6.0 h; 150.0 µM

Structure (SMILES) | solubility kinetic [µg/mL]
COC(=O)c1ccc([C@H]2c3[nH]c4ccccc4c3C[C@H](C(=O)OC)N2C(=O)CCl)cc1 | < 1
COc1ccc(OC)c(CN2CCNc3cc(Nc4ccccc4)ncc3C2)c1 | > 86
Cc1cccc(N2CCN(c3nc4ccccc4c4nnc(C)n34)CC2)c1C | < 1
Cc1cccc(CN2CCN(c3ccccn3)CC2)c1 | 30.9 (≈ 115 µM)
O=C(Nc1nc(-c2ccccc2)cs1)c1ccncc1NS(=O)(=O)c1ccc(N2CCCC2=O)cc1 | 56.9 (≈ 110 µM)
Cc1ccccc1N(C)C1CN([S+](=O)([O-])c2cccc(C(F)(F)F)c2)C1 | 1.42 (≈ 3.7 µM)
Cc1ccc(S(=O)(=O)Nc2cnccc2C(=O)Nc2nc(-c3ccc(C)c(C)c3)cs2)cc1 | < 1
COC(=O)c1ccc2nc(NC3=NC(c4[nH]ncc4Cl)C4=C(CCCC4=O)N3)oc2c1 (stereo unspecified) | 1.62 (≈ 3.69 µM)
Fc1cc(Nc2nc(-c3ccncc3)nc3ccccc23)ccc1-c1cccc(C(F)(F)F)c1 | < 1
COc1ccccc1N1CCN(CCN(C(=O)c2ccc(I)cc2)c2ccccn2)CC1 | 53.8 (≈ 99.1 µM)
Cc1noc(C)c1-c1ccc2ncnc(NC(C)c3ccccc3)c2c1 (stereo unspecified) | 12.6 (≈ 36.7 µM)
O=[N+]([O-])c1ccc(/C=N/n2c(CO)nc3ccccc32)s1 | < 1
O=S(=O)(Nc1ccccc1)c1ccc(NCc2ccc(Br)cc2O)cc1 | 1.42 (≈ 3.27 µM)
c1ccc(Nc2cc(-c3ccoc3)ncn2)cc1 | 16.2 (≈ 68.3 µM)
OCCOCCN1CCN(C(c2ccccc2)c2ccc(Cl)cc2)CC1 (stereo unspecified) | > 55
NC(=O)C1CCN(c2nc(-c3ccc(Cl)cc3)cs2)CC1 | 1.52 (≈ 4.72 µM)
Cc1cc(C)nc(NC(=S)N2CCN(c3cccc(OC(F)F)c3)CC2)c1 | 11.6 (≈ 29.4 µM)
CC(C)c1c(-c2ccccc2)nc2c(C#N)c[nH]n2c1=O | > 41
Clc1ccc(-c2nnc(C3CCCCC3)o2)cc1 | < 1
CC(C)CCNC(=O)[C@H](CC(C)C)NC(=O)[C@H]1O[C@@H]1C(=O)O | 33 (≈ 105 µM)
CCc1ccc(C2Sc3ccccc3NC3=C2C(=O)c2ccccc23)cc1 (stereo unspecified) | < 1
O=C(c1cc2ccccc2[nH]1)N1CCc2c(n(Cc3cccnc3)n(CCc3ccccc3)c2=O)C1 | > 47
C#CCOc1ccc(-c2nnc(Nc3ccc(NC(C)=O)cc3)c3ccccc23)cc1 | < 1
CCc1ccccc1Nc1ncnc2c1cnn2-c1ccc(Cl)cc1 | < 1
COc1ccc(OC)c(Nc2c3c(nc4ccccc24)CCC3)c1 | > 47
CC1=C(C(=O)Nc2ccccc2C)C(c2ccccc2Br)N=C(Nc2nc3ccccc3o2)N1 (stereo unspecified) | < 1

Structure (SMILES) | solubility kinetic [µg/mL]
Fc1cccc(F)c1Nc1nc(-c2ccncc2)nc2ccccc12 | < 1
COC(=O)c1ccnc(-c2cc(C(=O)NCCc3ccccc3)ccn2)c1 | 5.36 (≈ 14.8 µM)
COc1ccc(NC(=O)c2[nH]c(C)cc2C)cc1S(=O)(=O)Nc1ccc(Br)cc1 | < 1
Cc1cccc(-c2[nH]c(C(C)(C)C)nc2-c2ccc3nccnc3c2)n1 | > 51
Cc1cc(NS(=O)(=O)c2ccc(NC(=O)c3oc4ccccc4c3C)cc2)nc(C)n1 | < 1
N#Cc1cccc(-c2nccc(-n3ccnc3)n2)c1 | 7.26 (≈ 29.4 µM)
Cc1ccnc(NC(=S)N2CCC(Nc3cccc(C(F)(F)F)c3)CC2)c1 | 6.4 (≈ 16.2 µM)
COc1ccc(-c2nc(NC(C)c3ccccc3)c3ccccc3n2)cc1 (stereo unspecified) | < 1
CN(C(=O)COC(=O)c1csc(NCc2ccccc2)n1)c1ccccc1 | 26.4 (≈ 69.1 µM)
Cc1ccc(-c2cc(C(=O)Nc3ncco3)c3ccccc3n2)cc1C | 4.24 (≈ 12.3 µM)
CC(=O)NCCNC(=O)c1ccc(-c2ncc3cnc(-c4cccc(F)c4)cn23)cc1 | > 92
O=C(c1ccc(-c2ncc3cnc(-c4ccccc4)cn23)cc1)N1CCS(=O)(=O)CC1 | 65.1 (≈ 150 µM)
CC(=O)N1CCc2c(sc3c2c(=O)n(-c2ccccc2)c(=O)n3CC(=O)c2ccccc2)C1 | 3.53 (≈ 7.69 µM)
COc1cccc(CC(=O)Nc2nc(-c3ccc4c(c3)CCN4C(=O)c3ccccc3C)c(C)s2)c1 | < 1
Cc1ccc(NC2=C(c3ccc(C(F)(F)F)cc3)C(=O)c3ccccc32)cc1F | < 1
COc1cccc(CNc2ccc(S(=O)(=O)Nc3cccc4ccncc34)cc2)c1O | < 1
CCOC(=O)C1CCN(C(=O)Nc2ccc3c(c2)nc(C)n3C)CC1 | > 51
O=C1Nc2ccccc2C12CC2c1cc(Cl)c(O)c(Cl)c1 (stereo unspecified) | < 1
O=S(=O)(Nc1nccs1)c1ccc(NCc2ccc(Cl)cc2O)cc1 | 1.32 (≈ 3.34 µM)
Clc1ccc(C2=Nn3c(nnc3-c3ccncc3)SC2)cc1 | 1.45 (≈ 4.42 µM)
CCN(CC)CCNC(=O)c1c(C)[nH]c(C=C2C(=O)Nc3ccc(F)cc32)c1C | > 59
N#Cc1ccc(NS(=O)(=O)c2ccc(NC(=O)Cc3ccc(Cl)c(Cl)c3)cc2)cc1 | < 1
CN1Cc2c(ccc3c2OCO3)[C@@H]2[C@H]1c1cc3c(cc1C[C@@H]2O)OCO3 | > 52
Nc1ccccc1CNc1ccc(S(=O)(=O)Nc2nccs2)cc1 | > 53
CCOc1cc(-c2nccc3cc(OC)c(OC)cc23)cc(OCC)c1OCC | 13.8 (≈ 34.6 µM)
O=C1CCCC2=C1C(c1[nH]ncc1Cl)N=C(Nc1nc3cc(F)ccc3o1)N2 (stereo unspecified) | 3.16 (≈ 7.87 µM)

Structure (SMILES) | solubility kinetic [µg/mL]
O=C(c1ccncc1)N1CCC2(CCCN(C(c3ccccc3)c3ccccc3)C2)CC1 | < 1
Cc1cnc(-c2ccccc2C2COC2)nc1NCc1ccc(-c2cccnc2)cc1 | > 60
CC(C)(C)OC(=O)N[C@@H](Cc1ccc(O[S+](=O)([O-])c2cccc3cnccc23)cc1)C(=O)N1CCN(Cc2ccccc2)CC1 | < 1
O=C(N/N=C/c1ccc(O)c(O)c1)c1cc2ccccc2cc1O | 18.2 (≈ 56.5 µM)
O=C(Nc1ncnc2sc3c(c12)CCCCC3)c1ccco1 | 1.72 (≈ 5.49 µM)
O=[S+]([O-])(Nc1ccccc1)c1ccc(NCc2ccc(Cl)cc2O)cc1 | 2.64 (≈ 6.79 µM)
CCCCCOc1ccccc1/C(=C\SC)n1ccnc1 | < 1
O=C(Nc1ccc(Cl)cc1Cl)c1cnc2ccccc2n1 | < 1
O=C(NC(c1ccccc1)c1cc(Cl)c2cccnc2c1O)c1cccnc1 (stereo unspecified) | < 1
Nc1nc2c(s1)C(c1c(Cl)cccc1Cl)CC(=O)N2 (stereo unspecified) | < 1
COC(=O)c1ccc(Oc2nc3c(c(=O)n(C)c(=O)n3C)n2CCC(C)C)cc1 | < 1
Cc1ccc(NC(=O)c2cc(-c3ccc(C)o3)nc3ccccc23)nc1 | < 1
Cc1ccc(N2CCN(c3cnn(-c4nc5ccccc5s4)c(=O)c3Cl)CC2C)cc1 (stereo unspecified) | < 1
Cc1ccc(S(=O)(=O)N2CCCc3cc(NS(=O)(=O)c4ccccc4)ccc32)cc1 | < 1
CS(=O)(=O)c1ccc2nc(NC(=O)C3CC3)sc2c1 | 22.7 (≈ 76.7 µM)
O=C(Nc1ccc(F)c(C(F)(F)F)c1)Nc1nnc(-c2ccncc2)s1 | < 1
CCc1cccc(NC(=O)CSc2nc3ccccc3nc2N2CCCCC2)c1 | < 1
O=C(Cc1ccc(Cl)c(Cl)c1)Nc1ccc(S(=O)(=O)Nc2ccccc2)cc1 | < 1
O=C(NC1CCCc2c1cnn2-c1ccc(F)cc1F)c1ccccc1 (stereo unspecified) | 4.29 (≈ 12.1 µM)
COc1ccc(-c2nc3sc(CCNC(=O)C(C)(C)C)c(C)n3n2)cc1 | > 55
CN([C@@H](Cc1ccc(OS(=O)(=O)c2cccc3cnccc23)cc1)C(=O)N1CCN(c2ccccc2)CC1)S(=O)(=O)c1cccc2cnccc12 | 1.32 (≈ 1.83 µM)
Cc1noc(C)c1Cc1ccc(C(=O)N2CCc3c(nc4cc(-c5ccccc5)[nH]n4c3=O)C2)o1 | 4.77 (≈ 10.2 µM)
CC(=O)c1c(C)n(-c2ccccc2)c2ccc(O)cc12 | 1.14 (≈ 4.28 µM)
CC(C)(C)C(=O)C(Oc1ccc(Cl)cc1)n1ccnc1 (stereo unspecified) | 29 (≈ 99.1 µM)
Fc1cc(Nc2nc(-c3ccncc3)nc3ccccc23)ccc1-c1ccc(F)c(F)c1F | < 1
CCOc1ccccc1C(=O)Nc1ncccc1C(=O)Nc1cccc(S(=O)(=O)C(F)(F)F)c1 | < 1

Structure (SMILES) | solubility kinetic [µg/mL]
CC1=C(C(=O)Nc2nnc(-c3ccccc3)s2)C(c2nn(C)cc2Cl)N=C(Nc2nc3ccccc3o2)N1 (stereo unspecified) | < 1
Cc1sc(NC(=O)Cc2ccc3c(c2)OCO3)nc1-c1ccc2c(c1)CCN2C(=O)c1ccccc1F | < 1
CN1C(=O)c2ccccc2[S@](=O)c2ccc(C(=O)NCc3cccnc3)cc21 | 1.35 (≈ 3.45 µM)
COc1cccc(CNCc2cccn2-c2nnc(N3CCN(c4ccccc4)CC3)s2)c1 | 5.15 (≈ 11.2 µM)
CN(C)c1ccc2cc(C(=O)N[C@@H](CCCN=C(N)CCl)C(=O)NCc3ccccc3)ccc2c1 | 52.4 (≈ 106 µM)
N#Cc1cccc(Nc2ncc(-c3cccc4ccccc34)o2)c1 | < 1
COc1ccc(C2c3[nH]c4ccc(OC)cc4c3CCN2C(=O)Nc2ccccc2)cc1 (stereo unspecified) | 1.06 (≈ 2.48 µM)
NC(=O)C1CCN(c2nnc(-c3ccc(Br)cc3)s2)CC1 | 8.24 (≈ 22.4 µM)
NCC(=O)Nc1cccc(-c2nn3c(=O)cc(N4CCNCC4)nc3s2)c1 | 43.2 (≈ 112 µM)
CC(=O)NCc1ccc(-c2csc(Nc3cccc(C)c3)n2)o1 | 29.8 (≈ 91.1 µM)
COc1ccc(-c2ccc3ncc4c(c3c2)n(-c2ccc(N3CCNCC3)c(C(F)(F)F)c2)c(=O)n4C)cn1 | < 1
O=C1Nc2cc(Cl)ccc2Nc2cscc21 | 9.92 (≈ 39.6 µM)
Cc1cccc(Nc2nc(NCc3ccco3)c3ccccc3n2)c1.Cl | < 1
O=[S+]([O-])(Nc1ccc(N2CCNCC2)cc1)c1ccc(NCc2ccc(Cl)cc2O)cc1 | 25.2 (≈ 53.3 µM)
COc1ccc(-n2cnc3cc(C(=O)N4CCCCC4)ccc32)cc1 | > 50
COc1ccc(NC(=O)c2[nH]c(C)c(C(C)=O)c2C)cc1S(=O)(=O)N1CCCCC1 | 34.2 (≈ 79 µM)
CCN1C(=O)c2ccccc2S(=O)c2ccc(NC(=O)Cc3ccc(OC)cc3)cc21 (stereo unspecified) | 6.41 (≈ 14.7 µM)
FC(F)(F)c1cccc(Sc2nc(-c3ccccc3)nnc2C(F)(F)F)c1 | < 1
COCCOc1cnc2ccn([C@H](C)c3nnc4c(F)cc(-c5cnn(C)c5)cn34)c(=O)c2c1 | > 68
Fc1ccc(Cl)cc1-c1nc(Nc2ccncc2)c2nccnc2n1 | 1.6 (≈ 4.54 µM)
COc1ccc(CCn2c(N)cc(=O)[nH]c2=S)cc1OC | > 45
O=[S+]([O-])(Nc1ccccc1)c1ccc(NCc2cccc(Cl)c2F)cc1 | < 1
COc1ccc(Cl)cc1NC(=O)c1sc2nc3c(cc2c1N)N1CCC3CC1 | < 1

From PubChem BioAssay AID1645848
